This is an account of results in publication PMC10644971 (Bioconjugate chemistry, 2023).

For assay [1] the following is noted: ref Erazo-Oliveras et al., Cell Chem Biol 2016, 23, 598-607; cited from earlier work.
The conditions of assay [2]: ref Erazo-Oliveras et al., Nat Methods 2014, 11, 861-867; cited from earlier work.
Assay [3] addresses 3 (disulfide-linked dimer of fTAT-ST) (HIV). Put plainly: covalent SnoopTag/SnoopCatcher ligation followed by SDS-PAGE (in-gel fluorescence, Coomassie) and MALDI-TOF mass spectrometry; SC (40 μM) reacted with 2 (10 μM), or SC (80 μM) with 3 (10 μM), for 1 hour in TBS (20 mM Tris, 150 mM NaCl, pH 7.4); covalent isopeptide bond; products purified by cation exchange chromatography.

A further assay has as its target dfTAT-ST (2) (HIV). Described as above.

For orientation: stoichiometry N means the number of molecules, sites or subunits per partner or assembly.

Turning to “CK(TMR)RKKRRQRRR [fTAT, reference compound]”, the “leakage of liposomes mimicking the lipid composition of late endosomes” value in assay [1] is “does not cause leakage”. For the same substance, in assay [2], the “endosomal escape of the monomeric form” value is “does not mediate detectable endosomal escape”.

Consider SnoopCatcher (SC) (designed binder), for which the stoichiometry N in assay [3] came out at 2 copies; with dfTAT-ST (2) (HIV), 1 copies.
